Measurements taken from US12187756B2 (priority 2018, dated 2025).

Settings: buffer

## CC(=O)NC1[C@H](O[C@@H]2C(CO)O[C@H](O[C@H]3C(CO)O[C@@H](O[C@@H]4C(O)[C@@H](COP(=O)(O)OCCCCCN)OC(CO)[C@H]4O)C(NC(C)=O)[C@H]3O[C@@H]3OC(CO)[C@@H](O)[C@H](O)C3O)[C@@H](O)C2O)OC(CO)[C@H](O)[C@@H]1O[C@@H]1OC(CO)[C@@H](O)[C@H](O)C1O (stereo partly shown) [compound 33]
  compound remaining intact (HPLC): 50%
